How the values were obtained:
Format in all cases: in vivo
Design in all cases: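 grade 0 to 5 of growth suppression where 5 is 90% or more and 0 below 10%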
[1] = test system: Abutilon theophrasti medicus; test: Herbicidal effects in upland field soil treatment (Test Example 2); conditions: 1000 g active ingredient per hectare, 21st day after treatment, criteria of Table 138
Summary of the method: (§1)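 Pre-emergence soil application: seeds sown in upland field soil, covered, then wettable powder diluted in water sprayed on the soil surface at 1000 g active ingredient/ha in 1000 L/ha. Plants grown in greenhouse; herbicidal effect scored on a rating scale 21 days after treatment.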

Amaranthus viridis L. [2] = test: as above; conditions: 1000 g active ingredient per hectare, 21st day after treatment, criteria of Table 138
Summary of the method: as §1

[3] = test system: Abutilon theophrasti medicus; test: Herbicidal effects in upland field foliar treatment (Test Example 3); conditions: criteria of Table 138; for herbicidal effect (index) on Abutilon theophrasti medicus: 1000 g active ingredient per hectare, 14th day after treatment
Summary of the method: (§2)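 Weeds were sown in upland field soil and grown two weeks in a greenhouse before a foliar spray over the whole plant. Wettable powder was diluted in water and applied at 1000 L/ha, delivering 1000 g active ingredient/ha. Herbicidal effect was scored against set rating criteria 14 days after treatment.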

Amaranthus viridis L. [4] = test: as above; conditions: criteria of Table 138; for herbicidal effect (index) on Amaranthus viridis L.: 1000 g active ingredient per hectare, 14th day after treatment
Summary of the method: as §2

[5] = test system: Echinochloa crus-galli (L.) P. Beauv. var. crus-galli; test: as above; conditions: criteria of Table 138; for herbicidal effect (index) on Echinochloa crus-galli (L.) P. Beauv. var. crus-galli: 1000 g active ingredient per hectare, 14th day after treatment
Summary of the method: as §2

[6] = test system: Echinochloa oryzicola Vasing; test: Herbicidal effects in paddy field soil treatment (Test Example 1); conditions: paddy field soil treatment; 1000 g of the active ingredient per hectare; wettable powder added dropwise on water surface; 21st day after treatment
Summary of the method: (§3)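 Weed seeds were sown into puddled, leveled paddy soil in pots and flooded to 3 cm water depth. One day later the diluted wettable powder formulation was dropped onto the water surface at 1000 g active ingredient per hectare. Herbicidal effect was scored on day 21 after greenhouse growth.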

[7] = test system: Scirpus juncoides Roxb. var. ohwianus. T. Koyama; test: as above; conditions: paddy field soil treatment; 1000 g of the active ingredient per hectare; wettable powder added dropwise on water surface; 21st day after treatment
Summary of the method: as §3

[8] = test system: Monochoria vaginalis (Burm. f.) Presl var. plantaginea (Roxb.) Solms-Laub.; test: as above; conditions: paddy field soil treatment; 1000 g of the active ingredient per hectare; wettable powder added dropwise on water surface; 21st day after treatment
Summary of the method: as §3

[9] = 1000 g of the active ingredient per hectare, 14th day after the treatment, wettable powder

SMILES | herbicidal effect (index) on Abutilon theophrasti medicus [1] | herbicidal effect (index) on Amaranthus viridis L. (Amaranthus viridis L. [2]) | herbicidal effect (index) on Abutilon theophrasti medicus [3] | herbicidal effect (index) on Amaranthus viridis L. (Amaranthus viridis L. [4]) | herbicidal effect (index) on Echinochloa crus-galli (L.) P. Beauv. var. crus-galli [5] | Herbicidal effects index, Echinochloa oryzicola Vasing [6] | Herbicidal effects index, Scirpus juncoides Roxb. var. ohwianus. T. Koyama [7] | Herbicidal effects index, Monochoria vaginalis (Burm. f.) Presl var. plantaginea (Roxb.) Solms-Laub. [8] | herbicidal effects on Abutilon theophrasti medicus [3, 9] | herbicidal effects on Amaranthus viridis L. (Amaranthus viridis L. [4]; [9]) | herbicidal effects on Echinochloa crus-galli (L.) P. Beauv. var. crus-galli [5, 9]
Cc1cccnc1-n1c(=O)c(C(=O)C2=C(O)CCCC2=O)nc2ccccc21 [I-272] | 5 | 5 | 5 | 5 | 5 | 5 | 5 | 5 |  |  | 
CN1C(=O)COc2ccc(-n3c(=O)c(C(=O)C4=C(O)CCCC4=O)nc4ccccc43)cc21 [I-275] | 4 | 5 | 4 | 5 | 5 | 4 | 5 | 5 |  |  | 
O=C1CCCC(O)=C1C(=O)c1nc2ccccc2n(-c2ccc3occc3c2)c1=O [I-277] | 4 | 5 | 5 | 5 | 5 | 5 | 5 | 5 |  |  | 
Cc1cc(-n2c(=O)c(C(=O)C3=C(O)CCCC3=O)nc3cc(F)ccc32)no1 [I-281] | 5 | 5 | 5 | 5 | 5 | 5 | 5 | 5 |  |  | 
COc1ccc(-n2c(=O)c(C(=O)C3=C(O)CCCC3=O)nc3c(F)cc(F)cc32)cn1 [I-283] | 5 | 5 | 5 | 5 | 4 | 4 | 5 | 5 |  |  | 
CCCCn1c(=O)c(C(=O)C2=C(O)CCCC2=O)nc2c(Cl)cccc21 [I-364] | 5 | 5 | 5 | 5 | 5 | 4 | 5 | 5 |  |  | 
Cc1cnc(-n2c(=O)c(C(=O)C3=C(O)CCCC3=O)nc3ccccc32)cn1 [I-373] | 5 | 5 | 5 | 5 | 5 | 5 | 5 | 5 |  |  | 
Cc1cnc(-n2c(=O)c(C(=O)C3=C(O)CCCC3=O)nc3ccccc32)s1 [I-380] | 5 | 5 | 5 | 5 | 4 | 4 | 5 | 5 |  |  | 
O=C1CCCC(O)=C1C(=O)c1nc2ccccc2n(-c2ccccc2)c1=O [II-1] | 5 | 5 | 5 | 5 | 5 | 5 | 5 | 5 |  |  | 
O=C(C1=C(O)C2CCC(C2)C1=O)c1nc2ccccc2n(-c2ccccc2)c1=O (stereo not drawn) [II-4] | 4 | 5 | 5 | 5 | 4 | 5 | 5 | 5 |  |  | 
CC1(C)C(=O)C(C(=O)c2nc3ccccc3n(-c3ccccc3)c2=O)=C(O)C(C)(C)C1=O [II-5] | 5 | 5 | 5 | 5 | 5 | 5 | 5 | 5 |  |  | 
O=C1CCCC(O)=C1C(=O)c1nc2ccccc2n(-c2ccccc2F)c1=O [II-6] | 5 | 5 | 5 | 5 | 5 | 5 | 5 | 5 |  |  | 
O=C1CCCC(O)=C1C(=O)c1nc2ccccc2n(-c2cccc(F)c2)c1=O [II-7] | 5 | 5 | 5 | 5 | 5 | 5 | 5 | 5 |  |  | 
O=C1CCCC(O)=C1C(=O)c1nc2ccccc2n(-c2ccc(F)cc2)c1=O [II-8] | 5 | 5 | 5 | 5 | 5 | 5 | 5 | 5 |  |  | 
O=C1CCCC(O)=C1C(=O)c1nc2ccccc2n(-c2ccccc2Cl)c1=O [II-9] | 5 | 4 | 5 | 5 | 5 | 5 | 5 | 5 |  |  | 
O=C1CCCC(O)=C1C(=O)c1nc2ccccc2n(-c2cccc(Cl)c2)c1=O [II-11] | 5 | 5 | 5 | 5 | 5 | 5 | 5 | 5 |  |  | 
O=C1CCCC(O)=C1C(=O)c1nc2ccccc2n(-c2ccc(Cl)cc2)c1=O [II-13] | 5 | 5 | 5 | 5 | 5 | 5 | 5 | 5 |  |  | 
O=C(C1=C(O)C2CCC(C2)C1=O)c1nc2ccccc2n(-c2ccc(Cl)cc2)c1=O (stereo not drawn) [II-14] | 5 | 5 |  |  |  | 5 | 5 | 5 | 4 | 5 | 5
